Measurements published in patent US11780845B2 (Relay Therapeutics, Inc., priority 2019, dated 2023).

How the values were obtained:
SNU16 cells = test: SNU16 Cancer Cell Line Proliferation Assay; assay type: cell-based; conditions: Homo sapiens; SNU-16 cells
Summary of the method: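 SNU16 cells were seeded, held 24 h at 37 degrees, then dosed with an 11-point 3-fold dilution series prepared from a 10 mM DMSO stock. After 96 h incubation, viability was read by CellTiter Glo luminescence.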

FGFR2 = FGFR2 (Homo sapiens (Human), UniProt P21802); test: FGFR2 Biochemical Caliper Assay
Sequence of FGFR2 (P21802 22-821): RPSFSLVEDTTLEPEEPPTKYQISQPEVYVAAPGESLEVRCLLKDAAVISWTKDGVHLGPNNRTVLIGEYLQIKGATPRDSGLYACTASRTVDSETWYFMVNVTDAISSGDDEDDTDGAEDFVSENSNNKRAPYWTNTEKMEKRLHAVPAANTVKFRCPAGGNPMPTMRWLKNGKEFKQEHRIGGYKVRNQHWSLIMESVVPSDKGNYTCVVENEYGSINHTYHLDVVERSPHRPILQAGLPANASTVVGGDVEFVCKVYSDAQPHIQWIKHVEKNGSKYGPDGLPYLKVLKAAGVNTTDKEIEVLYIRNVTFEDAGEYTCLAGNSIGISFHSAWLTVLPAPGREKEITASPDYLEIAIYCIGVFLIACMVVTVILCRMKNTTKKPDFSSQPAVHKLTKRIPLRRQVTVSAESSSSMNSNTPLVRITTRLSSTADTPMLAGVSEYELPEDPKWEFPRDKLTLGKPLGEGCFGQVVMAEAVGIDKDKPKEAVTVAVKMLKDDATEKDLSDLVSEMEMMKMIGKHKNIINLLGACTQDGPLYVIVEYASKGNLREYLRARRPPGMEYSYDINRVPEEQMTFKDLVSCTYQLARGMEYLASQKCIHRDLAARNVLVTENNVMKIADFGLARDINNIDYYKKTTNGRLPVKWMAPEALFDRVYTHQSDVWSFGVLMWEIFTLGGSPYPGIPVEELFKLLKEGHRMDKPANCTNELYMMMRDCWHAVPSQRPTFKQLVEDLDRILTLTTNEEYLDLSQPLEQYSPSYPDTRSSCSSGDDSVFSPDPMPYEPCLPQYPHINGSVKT
Protocol: Compounds of the present invention were also tested in a FGFR2 Biochemical Caliper Assay. Compounds were prepared in 10 mM DMSO solution and serially diluted into 11 concentrations by 3-fold dilution. […] 5 uL of ATP solution (100 uM) was added to start the reaction and the plate was incubated for 90 minutes, then 70 uL of stopping buffer (0.5M EDTA) was added to terminate the reaction. Each well was analyzed using EZ reader.

| IC50 (SNU16 cells) | IC50 (FGFR2) | Structure (SMILES) |
| --- | --- | --- |
| ≤ 100 nM | < 100 nM | C=C(C)C(=O)Nc1ccc(-c2c(-c3ccc(Oc4nccc(C)n4)c(F)c3)c3c(N)ncnc3n2C2CCCO2)cc1 (stereo not shown) [Example 524] |
| ≤ 100 nM | < 100 nM | C=C(C)C(=O)Nc1ccc(-c2c(-c3ccc(Oc4nccc(C)n4)c(F)c3)c3c(N)ncnc3n2C)c(C(F)F)c1 [Example 526] |
| ≤ 100 nM | < 100 nM | C=C(C)C(=O)Nc1ccc(-c2c(-c3ccc(Oc4nccc(C)n4)c(F)c3)c3c(N)ncnc3n2C)c(C)c1 [Example 529] |
| ≤ 100 nM | < 100 nM | C=C(C)C(=O)Nc1ccc(-c2c(-c3ccc(Oc4nccc(Cl)n4)c(F)c3)c3c(N)ncnc3n2C)cc1 [Example 530] |
| ≤ 100 nM | 100 to 250 nM | C=C(C)C(=O)Nc1ccc(-c2c(-c3ccc(C(=O)N4CCCC4)cc3F)c3c(N)ncnc3n2C)cc1 [Example 537] |
| ≤ 100 nM | < 100 nM | C=C(C)C(=O)Nc1ccc(-c2c(-c3ccc(Oc4nccc(C)n4)cc3F)c3c(N)ncnc3n2C)c(F)c1 [Example 543] |
| ≤ 100 nM | < 100 nM | C=C(C)C(=O)Nc1ccc(-c2c(-c3cc(F)c(Oc4nccc(C)n4)cc3F)c3c(N)ncnc3n2C)cc1 [Example 546] |
| 250 to 1000 nM | 250 to 1000 nM | C=Cc1ncc(-c2c(-c3ccc(C(=O)N4CCCC4)cc3)c3c(N)ncnc3n2C)cn1 [Example 554] |
| ≤ 100 nM | < 100 nM | Cn1c(-c2ccc(NC(=O)CCl)cc2)c(-c2ccc(C(=O)N3CCCC3)cc2)c2c(N)ncnc21 [Example 558] |
| ≤ 100 nM | < 100 nM | C=C(C)C(=O)Nc1ccc(-c2c(-c3ccc(C(=O)NC4CC(F)C4)c(OC)c3)c3c(N)ncnc3n2C)cc1 (stereo not shown) [Example 566] |
| ≤ 100 nM | 100 to 250 nM | C=C(C)C(=O)Nc1ccc(-c2c(-c3ccc(C(=O)NC4CC(F)C4)c(F)c3)c3c(N)ncnc3n2C)cc1 (stereo not shown) [Example 567] |
| ≤ 100 nM | < 100 nM | C=C(C)C(=O)Nc1ccc(-c2c(-c3ccc(C(=O)NCC(F)(F)F)c(OC)c3)c3c(N)ncnc3n2C)cc1 [Example 568] |
| ≤ 100 nM | < 100 nM | C=C(C)C(=O)Nc1ccc(-c2c(-c3c(F)cc(Oc4nccc(C)n4)cc3F)c3c(N)ncnc3n2C)cc1 [Example 570] |
| 250 to 1000 nM | 1000 to 100000 nM | C=C(C)C(=O)Nc1ccc(-c2c(-c3ccc(Oc4nccc(C)n4)cc3C(F)F)c3c(N)ncnc3n2C)cc1 [Example 571] |
| 250 to 1000 nM | 100 to 250 nM | C=Cc1ccc(-c2c(-c3ccc(Oc4nccc(C)n4)cc3)c3c(N)ncnc3n2C)cn1 [Example 598] |
| ≤ 100 nM | < 100 nM | C=C(C)C(=O)Nc1ccc(-c2c(-c3ccc(Oc4nccc(C(F)F)n4)cc3)c3c(N)ncnc3n2C)cc1 [Example 600] |
| ≤ 100 nM | < 100 nM | C=CC(=O)N1CC=C(c2c(-c3ccc(Oc4ccccc4)cc3)c3c(N)ncnc3n2C)CC1 [Example 603] |
| ≤ 100 nM | < 100 nM | C=CC(=O)N1CCC(n2cc(-c3c(-c4ccc(Oc5cccc(C)n5)cc4)c4c(N)ncnc4n3C)cn2)CC1 [Example 608] |
| ≤ 100 nM | < 100 nM | C=CC(=O)N1CCC(n2cc(-c3c(-c4ccc(OC)cc4)c4c(N)ncnc4n3C)cn2)CC1 [Example 618] |
| 100 to 250 nM | 100 to 250 nM | C=CC(=O)N1CCC(c2c(-c3ccc(Oc4cccc(C)n4)c(OC)c3)c3c(N)ncnc3n2C)CC1 [Example 619] |
| ≤ 100 nM | < 100 nM | Cc1cccc(Oc2ccc(-c3c(-c4cnn(C5CCN(C(=O)/C=C/CN(C)C)CC5)c4)n(C)c4ncnc(N)c34)cc2)n1 [Example 621] |
| 100 to 250 nM | 100 to 250 nM | C=CC(=O)NC1CC=C(c2c(-c3ccc(Oc4cccc(C)n4)c(OC)c3)c3c(N)ncnc3n2C)CC1 (stereo not shown) [Example 623] |
| ≤ 100 nM | < 100 nM | C=CC(=O)N1CCCC(n2cc(-c3c(-c4ccc(Oc5cccc(C)n5)cc4)c4c(N)ncnc4n3C)cn2)C1C (stereo not shown) [Example 627] |
| ≤ 100 nM | < 100 nM | C=CC(=O)N1CCC(n2cc(-c3c(-c4ccc(Oc5cccc(C)n5)cc4)c4c(N)ncnc4n3C)c(C)n2)CC1 [Example 632] |
| 100 to 250 nM | 100 to 250 nM | C=CC(=O)N1CCC(n2cc(-c3c(-c4ccc(Oc5ncccn5)cc4)c4c(N)ncnc4n3C)cn2)CC1 [Example 633] |
| ≤ 100 nM | < 100 nM | C=CC(=O)N1CCC(n2cc(-c3c(-c4ccc(Oc5cccc(F)n5)cc4)c4c(N)ncnc4n3C)cn2)CC1 [Example 634] |
| ≤ 100 nM | 100 to 250 nM | C=CC(=O)N1CCC(n2cc(-c3c(-c4ccc(Oc5ccc(C)cn5)cc4)c4c(N)ncnc4n3C)cn2)CC1 [Example 636] |
| ≤ 100 nM | < 100 nM | C=CC(=O)N1CCC(n2ncc(-c3c(-c4ccc(Oc5cccc(C)n5)cc4)c4c(N)ncnc4n3C)c2C)CC1 [Example 637] |
| ≤ 100 nM | < 100 nM | C=CC(=O)N1CCC(n2cc(-c3c(-c4ccc(Oc5ccccn5)cc4)c4c(N)ncnc4n3C)cn2)CC1 [Example 638] |
| ≤ 100 nM | < 100 nM | C=CC(=O)N1CCC(n2cc(-c3c(-c4ccc(Oc5cccc(C)n5)c(OC)c4)c4c(N)ncnc4n3C)cn2)CC1 [Example 641] |

Further lines, the molecule ahead of its results:

| Structure (SMILES) | IC50 (SNU16 cells) | IC50 (FGFR2) |
| --- | --- | --- |
| C=C(C)C(=O)Nc1ccc(-c2c(-c3ccc(Oc4cccc(C)n4)cc3)c3c(N)ncnc3n2C)nc1 [Example 533] | ≤ 100 nM | < 100 nM |
| C=C(C)C(=O)Nc1ccc(-c2c(-c3ccc(Oc4cnn(C)c4)cc3)c3c(N)ncnc3n2C)cc1 [Example 541] | 250 to 1000 nM | 1000 to 100000 nM |
| C=C(C)C(=O)Nc1ccc(-c2c(-c3ccc(Oc4nccc(C)n4)c(F)c3F)c3c(N)ncnc3n2C)cc1 [Example 552] | ≤ 100 nM | < 100 nM |
| C=C(C)C(=O)Nc1ccc(-c2c(-c3ccc(C(=O)N4CC5CC4C5)cc3F)c3c(N)ncnc3n2C)cc1 [Example 562] | ≤ 100 nM | 100 to 250 nM |
| C=C(C)C(=O)Nc1ccc(-c2c(-c3ccc(C(=O)N4CCCC4)cc3C#N)c3c(N)ncnc3n2C)cc1 [Example 563] | 250 to 1000 nM | 1000 to 100000 nM |
| C=C(C)C(=O)Nc1ccc(-c2c(-c3ccc(Oc4nccc(C)n4)cc3C#N)c3c(N)ncnc3n2C)cc1 [Example 564] | 250 to 1000 nM | 1000 to 100000 nM |
| C=C(C)C(=O)Nc1ccc(-c2c(-c3ccc(C(=O)N4CCCC4)cc3OC)c3c(N)ncnc3n2C)cc1 [Example 569] | 100 to 250 nM | 100 to 250 nM |
| C=C(C)C(=O)Nc1ccc(-c2c(-c3ncc(Oc4nccc(C)n4)cc3F)c3c(N)ncnc3n2C)cc1 [Example 572] | ≤ 100 nM | < 100 nM |
| C=Cc1ncc2cc(-c3c(-c4ccc(C(=O)N5CCCC5)cc4)c4c(N)ncnc4n3C)ccc2n1 [Example 573] | 250 to 1000 nM | 1000 to 100000 nM |
| C=C(C)C(=O)Nc1ccc(-c2c(-c3ccc(C(=O)NCC4CCC4)c(F)c3)c3c(N)ncnc3n2C)nc1 [Example 589] | ≤ 100 nM | < 100 nM |
| Cn1c(-c2ccc(NC(=O)C3=CCC3)cc2)c(-c2ccc(C(=O)NCC3CCC3)c(F)c2)c2c(N)ncnc21 [Example 590] | ≤ 100 nM | < 100 nM |
| C=C(C)C(=O)Nc1ccc(-c2c(-c3ccc(Oc4nccc(C)n4)c(C(F)F)c3)c3c(N)ncnc3n2C)cc1 [Example 594] | ≤ 100 nM | 100 to 250 nM |
| C=C(C)C(=O)Nc1ccc(-c2c(C3=C(F)CC(C(=O)N4CCCC4)CC3)c3c(N)ncnc3n2C)cc1 (stereo not shown) [Example 601] | 250 to 1000 nM | 1000 to 100000 nM |
| C=CC(=O)N1CCC(n2cc(-c3c(-c4ccc(Oc5ccccc5)cc4)c4c(N)ncnc4n3C)cn2)CC1 [Example 602] | ≤ 100 nM | < 100 nM |
| C=CC(=O)N1CCC(n2cc(-c3c(-c4ccc(Oc5ccccc5)cc4)c4c(N)ncnc4n3C)cn2)C(O)C1 (stereo not shown) [Example 607] | ≤ 100 nM | < 100 nM |
| CCC(=O)N1CCC(n2cc(-c3c(-c4ccc(Oc5ccccc5)cc4)c4c(N)ncnc4n3C)cn2)CC1 [Example 617] | 250 to 1000 nM | 100 to 250 nM |
| C=CC(=O)N1CC=C(c2c(-c3ccc(Oc4cccc(C)n4)c(OC)c3)c3c(N)ncnc3n2C)CC1 [Example 620] | ≤ 100 nM | < 100 nM |
| C=C(C)C(=O)N1CCC(n2cc(-c3c(-c4ccc(Oc5cccc(C)n5)cc4)c4c(N)ncnc4n3C)cn2)CC1 [Example 622] | 1000 to 100000 nM | 250 to 1000 nM |
| C=CC(=O)N1CCCC(n2cc(-c3c(-c4ccc(Oc5ccccc5)cc4)c4c(N)ncnc4n3C)cn2)C1C (stereo not shown) [Example 626] | 250 to 1000 nM | 100 to 250 nM |
| C=CC(=O)N(C)C1CC(n2cc(-c3c(-c4ccc(Oc5cccc(C)n5)cc4)c4c(N)ncnc4n3C)cn2)C1 (stereo not shown) [Example 628] | ≤ 100 nM | < 100 nM |
| C=CC(=O)N1CCCC(n2cc(-c3c(-c4ccc(Oc5cccc(C)n5)cc4)c4c(N)ncnc4n3C)cn2)C1 (stereo not shown) [Example 629] | ≤ 100 nM | < 100 nM |
| C=CC(=O)N1CCC(n2cc(-c3c(-c4ccc(Oc5cccc(C)n5)cc4)c4c(N)ncnc4n3C)cn2)C1 (stereo not shown) [Example 630] | ≤ 100 nM | < 100 nM |
| C=CC(=O)N1CCC(n2cc(-c3c(-c4ccc(Oc5cc(C)ccn5)cc4)c4c(N)ncnc4n3C)cn2)CC1 [Example 631] | 100 to 250 nM | 100 to 250 nM |
| CC#CC(=O)N1CCC(n2cc(-c3c(-c4ccc(Oc5cccc(C)n5)cc4)c4c(N)ncnc4n3C)cn2)C1 (stereo not shown) [Example 635] | ≤ 100 nM | 100 to 250 nM |
| C/C=C/C(=O)N1CC(n2cc(-c3c(-c4ccc(Oc5cccc(C)n5)cc4)c4c(N)ncnc4n3C)cn2)C1 [Example 639] | ≤ 100 nM | < 100 nM |
| C/C=C/C(=O)N1CCC(n2cc(-c3c(-c4ccc(Oc5cccc(C)n5)cc4)c4c(N)ncnc4n3C)cn2)C1 (stereo not shown) [Example 640] | ≤ 100 nM | < 100 nM |
